Test results from PubChem BioAssay (NCI).
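1) Cells in 96-well plates. 2) Compound, 48 h, 5 concentrations. 3) Linear interpolation between surrounding doses. 4) Unreached endpoint = highest concentration. Here, GI50 denotes the concentration required for 50% inhibition of growth. TGI: total growth inhibition.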

The compounds below were run on A498 renal (assay: inhibition of tumour cell growth, NCI panel, 48 h).

Structure (SMILES) | TGI [µM] | GI50 [µM]
O=c1[nH]c(=O)n(C2CC(O)C(CS)O2)cc1F (stereo not drawn) | > 86.2 | –
CNC1C(=O)C(C)C(O)(C(CC(C)C(O)/C=C/C=C/CNC(=O)C(C)(C)C(O)\C(C)=C/C=C\C=C\Cc2cnc(C)o2)OC)C12C(=O)OC2COC (stereo not drawn) (tested in a mixture with another compound) | > 79.3 | –
O=C(O)C(Sc1ccc(Cl)cc1)Sc1ccc(Cl)cc1 | 95.5 | –
CC[C@H](C)[C@H](NC(=O)[C@H]1CCCCN1C)C(=O)N(C)[C@H](CCc1nc(C(=O)N[C@@H](Cc2ccccc2)C[C@H](C)C(=O)OC)cs1)C(C)C | 2.75 | 0.14
COc1ccc(C(=O)/C=C/c2cccnc2Nc2cc(OC)c(OC)c(OC)c2)cc1 | 13.1 | 1.8
NCCCCn1c2c(c3ccccc3c1=O)C(=O)c1ccccc1-2 | 1.71 | 0.543
CCOC(=O)c1c(C)n(Cc2ccc(OC)cc2)c2c1cc(O)c1[nH]c3c(c12)CCCC3 | 60.6 | 21.3
COc1cc(-c2c(C#N)c(N)n3c(nc4ccccc43)c2C#N)cc(Br)c1OC | > 100 | > 100
COc1cc2c3c(n(CCCBr)c(=O)c2cc1OC)-c1ccc(NC(C)=O)cc1C3=O | 8.47 | 2.69
COc1ccc(S(=O)(=O)N(Cc2ccc3c(n2)C=CC(C)(C)O3)C2CCC2)cc1OC | 0.0431 | < 0.01
COc1ccc(C2CC(=O)c3c(O)c(OC)c(OC)c(OC)c3O2)c(O)c1 (stereo not drawn) | 0.984 | 0.126

The compounds below were run on HCC-2998 colon (assay: inhibition of tumour cell growth, NCI panel, 48 h).

Structure (SMILES) | TGI [µM] | GI50 [µM]
O=c1[nH]c(=O)n(C2CC(O)C(CS)O2)cc1F (stereo not drawn) | > 100 | –
CNC1C(=O)C(C)C(O)(C(CC(C)C(O)/C=C/C=C/CNC(=O)C(C)(C)C(O)\C(C)=C/C=C\C=C\Cc2cnc(C)o2)OC)C12C(=O)OC2COC (stereo not drawn) (tested in a mixture with another compound) | 41.7 | –
O=C(O)C(Sc1ccc(Cl)cc1)Sc1ccc(Cl)cc1 | 69.1 | –
CC[C@H](C)[C@H](NC(=O)[C@H]1CCCCN1C)C(=O)N(C)[C@H](CCc1nc(C(=O)N[C@@H](Cc2ccccc2)C[C@H](C)C(=O)OC)cs1)C(C)C | > 13.4 | 0.694
COc1ccc(C(=O)/C=C/c2cccnc2Nc2cc(OC)c(OC)c(OC)c2)cc1 | 2.85 | 1.35
NCCCCn1c2c(c3ccccc3c1=O)C(=O)c1ccccc1-2 | 1.92 | 0.484
CCOC(=O)c1c(C)n(Cc2ccc(OC)cc2)c2c1cc(O)c1[nH]c3c(c12)CCCC3 | 14.5 | 2.39
COc1cc(-c2c(C#N)c(N)n3c(nc4ccccc43)c2C#N)cc(Br)c1OC | > 100 | > 100
COc1cc2c3c(n(CCCBr)c(=O)c2cc1OC)-c1ccc(NC(C)=O)cc1C3=O | 43.9 | 11.9
COc1ccc(S(=O)(=O)N(Cc2ccc3c(n2)C=CC(C)(C)O3)C2CCC2)cc1OC | 3.79 | < 0.01
COc1ccc(C2CC(=O)c3c(O)c(OC)c(OC)c(OC)c3O2)c(O)c1 (stereo not drawn) | 27.2 | 0.761

These compounds were tested on KM12 colon (assay: inhibition of tumour cell growth, NCI panel, 48 h).

Structure (SMILES) | TGI [µM] | GI50 [µM]
O=c1[nH]c(=O)n(C2CC(O)C(CS)O2)cc1F (stereo not drawn) | > 100 | –
CNC1C(=O)C(C)C(O)(C(CC(C)C(O)/C=C/C=C/CNC(=O)C(C)(C)C(O)\C(C)=C/C=C\C=C\Cc2cnc(C)o2)OC)C12C(=O)OC2COC (stereo not drawn) (tested in a mixture with another compound) | 26.1 | –
O=C(O)C(Sc1ccc(Cl)cc1)Sc1ccc(Cl)cc1 | > 100 | –
CC[C@H](C)[C@H](NC(=O)[C@H]1CCCCN1C)C(=O)N(C)[C@H](CCc1nc(C(=O)N[C@@H](Cc2ccccc2)C[C@H](C)C(=O)OC)cs1)C(C)C | > 25 | 0.261
